Assay [1] has as its system E. coli, P. aeru, S. aureus, A. nigar, Candida. Briefly: Antimicrobial test (preservative effectiveness test, USP), microorganism type not specified. The assay is classed as cell-based. Conditions: for Enhancement of antimicrobial activity (in words): solutions containing benzalkonium chloride, α-cyclodextrin, and EDTA-2Na, alone or in admixture. The method, then:
Using bacteria Escherichia coli (E. coli), Pseudomonas aeruginosa (P. aeru), and Stapyrococcus aureus (S. aureus) and fungi Aspergillus nigar (A. nigar) and Candida albicans (Candida) as infectious microorganisms, a preservative effectiveness test was carried out according to the Pharmacopoeia of the United States.
++: microorganisms died within 5 days
+: microorganisms died in 6-10 days
-:microorganisms died in 11-15 days or over 15 days
Solutions were prepared in accordance with the formulation shown in Experiment 1 in a conventional manner as used in the preparation of eye drops while the amount of disodium ethylenediaminetetraacetate (EDTA-2Na) blended was in the range of 0.002 to 0.3%. The solutions were subject to the antimicrobial test of Experiment 3 and evaluated for antimicrobial activity according to the same criterion as above.
Solutions of the following formulation were prepared in a conventional manner as used in the preparation of eye drops.
The solutions were subject to the antimicrobial test of Experiment 3 and evaluated for antimicrobial activity according to the same criterion as above.
Solutions of the formulation shown in Table 7 were prepared to a total amount of 1,000 g in a conventional manner as used in the preparation of eye drops. […] The ophthalmic solutions were subject to the same tests as in Experiments 1 and 3. In the test of Experiment 3, the ophthalmic solutions were evaluated for antimicrobial activity according to the same criterion as before.

Assay [2] is described as follows: Benzalkonium chloride adsorption test (soft contact lens Seequence). The assay is classed as physicochemical. Conditions: α-cyclodextrin 0%; benzalkonium chloride 0.01%; 25° C., 24 hours. As for the experimental part:
(§1) A test was conducted to examine the inhibition of benzalkonium chloride adsorption to soft contact lenses. Solutions of the following formulation were prepared in a conventional manner as used in the preparation of eye drops.
(§2) The percent inhibition of benzalkonium chloride adsorption to commercially available soft contact lenses was determined by the following test.
(§3) Benzalkonium chloride adsorption test A 30-ml vial was charged with 10 ml of the solution and a soft contact lens was immersed therein. In a constant temperature tank at 25° C., the vial was shaken for 24 hours. After the contact lens was removed from the vial, the concentration of benzalkonium chloride in the solution was quantitatively determined by high performance liquid chromatography. A percent inhibition of adsorption was calculated according to the following formula.
(§4) As a control, the above procedure was repeated except that no contact lens was immersed.
(§5) Inhibition of adsorption (%)=(concentration of benzalkonium chloride in sample solution)/(concentration of benzalkonium chloride in control solution)×100
(§6) Note that Seequence, Nichicon Soft and Menicon Soft are trademarks of soft contact lenses commercially available from Bausch & Lomb, Nihon Contact K.K., and Menicon K.K., respectively.

Assay [3] can be described thus: Benzalkonium chloride adsorption test (soft contact lens Menicon Soft 72). To be noted: α-cyclodextrin 0%; benzalkonium chloride 0.01%; 25° C., 24 hours. The assay is classed as physicochemical. As for the experimental part:
as §1, §2, §3, §4, §5, §6

Assay [4] in a line: Benzalkonium chloride adsorption test (soft contact lens Nichicon Soft μ). To be noted: α-cyclodextrin 0%; benzalkonium chloride 0.01%; 25° C., 24 hours. The assay is classed as physicochemical. As for the experimental part:
as §1, §2, §3, §4, §5, §6

With `O=BOB(O)OB(O)OB=O` [Borax], the Antimicrobial activity entry in assay [1] (boric acid 0%, borax 0.01%, about pH 7.2) is recorded as “+ (microorganisms died in 6-10 days)”; in assay [1] (boric acid 0%, borax 0.02%, about pH 7.2), “+ (microorganisms died in 6-10 days)”; in assay [1] (boric acid 0%, borax 0.04%, about pH 7.2), “+ (microorganisms died in 6-10 days)”; in assay [1] (boric acid 0%, borax 0.06%, about pH 7.2) it was “+ (microorganisms died in 6-10 days)”; in assay [1] (boric acid 0%, borax 0.08%, about pH 7.2), “+ (microorganisms died in 6-10 days)”; in assay [1] (boric acid 0%, borax 0.1%, about pH 7.2) it was “+ (microorganisms died in 6-10 days)”. The Antimicrobial activity entry in assay [1] (boric acid 0%, borax 0.15%, about pH 7.2) was “++ (microorganisms died within 5 days)”. Further, the “Enhancement of antimicrobial activity (in words)” value in assay [1] is “effective for enhancing the antimicrobial activity”.

Regarding “benzalkonium chloride [reference compound]”, the Inhibition of adsorption is listed as 65% in assay [2], 65% in assay [3] and 60% in assay [4]. For the same compound, in assay [1] (boric acid 0%, borax 0%, EDTA-2Na 0.006%, α-cyclodextrin 0.03%, about pH 7.2), the Antimicrobial activity entry is “+ (microorganisms died in 6-10 days)”.

With `O=C([O-])CN(CCN(CC(=O)O)CC(=O)O)CC(=O)[O-].[Na+].[Na+]` [EDTA-2Na, disodium ethylenediaminetetraacetate], the “Effect on lowering of antimicrobial activity by α-cyclodextrin (in words)” value in assay [1] (0.01 to 1.0% of α-cyclodextrin, remarkable at EDTA-2Na at least 0.006%) is reported as “prevents a lowering of antimicrobial activity”. The Antimicrobial activity result in assay [1] (EDTA-2Na 0.002%, α-cyclodextrin 0.01%) is reported as “+ (microorganisms died in 6-10 days)”; in assay [1] (EDTA-2Na 0.002%, α-cyclodextrin 0.03%), “- (microorganisms died in 11-15 days or over 15 days)”; in assay [1] (EDTA-2Na 0.002%, α-cyclodextrin 0.05%) it was “- (microorganisms died in 11-15 days or over 15 days)”; in assay [1] (EDTA-2Na 0.002%, α-cyclodextrin 0.1%), “- (microorganisms died in 11-15 days or over 15 days)”; in assay [1] (EDTA-2Na 0.002%, α-cyclodextrin 0.3%) it was “- (microorganisms died in 11-15 days or over 15 days)”; in assay [1] (EDTA-2Na 0.002%, α-cyclodextrin 0.5%), “- (microorganisms died in 11-15 days or over 15 days)”. In addition, the Antimicrobial activity result in assay [1] (EDTA-2Na 0.002%, α-cyclodextrin 1.0%) is “- (microorganisms died in 11-15 days or over 15 days)”; in assay [1] (EDTA-2Na 0.004%, α-cyclodextrin 0.01%), “+ (microorganisms died in 6-10 days)”; in assay [1] (EDTA-2Na 0.004%, α-cyclodextrin 0.03%), “- (microorganisms died in 11-15 days or over 15 days)”; in assay [1] (EDTA-2Na 0.004%, α-cyclodextrin 0.05%), “- (microorganisms died in 11-15 days or over 15 days)”; in assay [1] (EDTA-2Na 0.004%, α-cyclodextrin 0.1%) it was “- (microorganisms died in 11-15 days or over 15 days)”; in assay [1] (EDTA-2Na 0.004%, α-cyclodextrin 0.3%) it was “- (microorganisms died in 11-15 days or over 15 days)”. Also, the Antimicrobial activity entry in assay [1] (EDTA-2Na 0.004%, α-cyclodextrin 0.5%) is “- (microorganisms died in 11-15 days or over 15 days)”; in assay [1] (EDTA-2Na 0.004%, α-cyclodextrin 1.0%), “- (microorganisms died in 11-15 days or over 15 days)”; in assay [1] (EDTA-2Na 0.006%, α-cyclodextrin 0.01%), “+ (microorganisms died in 6-10 days)”; in assay [1] (EDTA-2Na 0.006%, α-cyclodextrin 0.03%) it was “+ (microorganisms died in 6-10 days)”; in assay [1] (EDTA-2Na 0.006%, α-cyclodextrin 0.05%), “+ (microorganisms died in 6-10 days)”; in assay [1] (EDTA-2Na 0.006%, α-cyclodextrin 0.1%) it was “+ (microorganisms died in 6-10 days)”. The Antimicrobial activity result in assay [1] (EDTA-2Na 0.006%, α-cyclodextrin 0.3%) is “+ (microorganisms died in 6-10 days)”; in assay [1] (EDTA-2Na 0.006%, α-cyclodextrin 0.5%) it was “+ (microorganisms died in 6-10 days)”; in assay [1] (EDTA-2Na 0.006%, α-cyclodextrin 1.0%), “+ (microorganisms died in 6-10 days)”; in assay [1] (EDTA-2Na 0.01%, α-cyclodextrin 0.01%) it was “+ (microorganisms died in 6-10 days)”; in assay [1] (EDTA-2Na 0.01%, α-cyclodextrin 0.03%), “+ (microorganisms died in 6-10 days)”; in assay [1] (EDTA-2Na 0.01%, α-cyclodextrin 0.05%) it was “+ (microorganisms died in 6-10 days)”. The Antimicrobial activity entry is given as “+ (microorganisms died in 6-10 days)” in assay [1] (EDTA-2Na 0.01%, α-cyclodextrin 0.1%); “+ (microorganisms died in 6-10 days)” in assay [1] (EDTA-2Na 0.01%, α-cyclodextrin 0.3%); “+ (microorganisms died in 6-10 days)” in assay [1] (EDTA-2Na 0.01%, α-cyclodextrin 0.5%); “+ (microorganisms died in 6-10 days)” in assay [1] (EDTA-2Na 0.01%, α-cyclodextrin 1.0%); “+ (microorganisms died in 6-10 days)” in assay [1] (EDTA-2Na 0.05%, α-cyclodextrin 0.01%); “+ (microorganisms died in 6-10 days)” in assay [1] (EDTA-2Na 0.05%, α-cyclodextrin 0.03%). The Antimicrobial activity result in assay [1] (EDTA-2Na 0.05%, α-cyclodextrin 0.05%) is “+ (microorganisms died in 6-10 days)”; in assay [1] (EDTA-2Na 0.05%, α-cyclodextrin 0.1%), “+ (microorganisms died in 6-10 days)”; in assay [1] (EDTA-2Na 0.05%, α-cyclodextrin 0.3%) it was “+ (microorganisms died in 6-10 days)”; in assay [1] (EDTA-2Na 0.05%, α-cyclodextrin 0.5%) it was “+ (microorganisms died in 6-10 days)”; in assay [1] (EDTA-2Na 0.05%, α-cyclodextrin 1.0%) it was “+ (microorganisms died in 6-10 days)”; in assay [1] (EDTA-2Na 0.1%, α-cyclodextrin 0.01%), “+ (microorganisms died in 6-10 days)”. For the same compound, the Antimicrobial activity result in assay [1] (EDTA-2Na 0.1%, α-cyclodextrin 0.03%) is reported as “+ (microorganisms died in 6-10 days)”; in assay [1] (EDTA-2Na 0.1%, α-cyclodextrin 0.05%) it was “+ (microorganisms died in 6-10 days)”; in assay [1] (EDTA-2Na 0.1%, α-cyclodextrin 0.1%), “+ (microorganisms died in 6-10 days)”; in assay [1] (EDTA-2Na 0.1%, α-cyclodextrin 0.3%), “+ (microorganisms died in 6-10 days)”; in assay [1] (EDTA-2Na 0.1%, α-cyclodextrin 0.5%) it was “+ (microorganisms died in 6-10 days)”; in assay [1] (EDTA-2Na 0.1%, α-cyclodextrin 1.0%) it was “+ (microorganisms died in 6-10 days)”. The Antimicrobial activity result in assay [1] (EDTA-2Na 0.3%, α-cyclodextrin 0.01%) is given as “+ (microorganisms died in 6-10 days)”; in assay [1] (EDTA-2Na 0.3%, α-cyclodextrin 0.03%), “+ (microorganisms died in 6-10 days)”; in assay [1] (EDTA-2Na 0.3%, α-cyclodextrin 0.05%), “+ (microorganisms died in 6-10 days)”; in assay [1] (EDTA-2Na 0.3%, α-cyclodextrin 0.1%) it was “+ (microorganisms died in 6-10 days)”; in assay [1] (EDTA-2Na 0.3%, α-cyclodextrin 0.3%) it was “+ (microorganisms died in 6-10 days)”; in assay [1] (EDTA-2Na 0.3%, α-cyclodextrin 0.5%), “+ (microorganisms died in 6-10 days)”. In addition, the Antimicrobial activity result in assay [1] (EDTA-2Na 0.3%, α-cyclodextrin 1.0%) was “+ (microorganisms died in 6-10 days)”.

For `OB(O)O` [Boric acid], the Antimicrobial activity entry in assay [1] (boric acid 0.05%, borax 0%, about pH 7.2) is listed as “+ (microorganisms died in 6-10 days)”; in assay [1] (boric acid 0.1%, borax 0%, about pH 7.2), “++ (microorganisms died within 5 days)”; in assay [1] (boric acid 0.2%, borax 0%, about pH 7.2), “++ (microorganisms died within 5 days)”; in assay [1] (boric acid 0.4%, borax 0%, about pH 7.2), “++ (microorganisms died within 5 days)”; in assay [1] (boric acid 0.6%, borax 0%, about pH 7.2) it was “++ (microorganisms died within 5 days)”; in assay [1] (boric acid 0.8%, borax 0%, about pH 7.2) it was “++ (microorganisms died within 5 days)”. Further, in assay [1] (boric acid 1.0%, borax 0%, about pH 7.2), the Antimicrobial activity result is recorded as “++ (microorganisms died within 5 days)”. Moreover, the “Enhancement of antimicrobial activity (in words)” value in assay [1] is “effective for enhancing the antimicrobial activity”.

(Values after patent publication US5998488A, “Ophthalmic composition” (Lion Corporation, priority 1994, dated 1999).)
